We go through eleven compounds from patent US11427548B2 (Arvinas Operations, Inc., priority 2015, dated 2022).

Test [1] has as its target T1, Androgen Receptor (Homo sapiens, UniProt P10275).
T1 construct: endogenous in cells; host or cells: VCaP cells
T1 sequence (P10275 1-920): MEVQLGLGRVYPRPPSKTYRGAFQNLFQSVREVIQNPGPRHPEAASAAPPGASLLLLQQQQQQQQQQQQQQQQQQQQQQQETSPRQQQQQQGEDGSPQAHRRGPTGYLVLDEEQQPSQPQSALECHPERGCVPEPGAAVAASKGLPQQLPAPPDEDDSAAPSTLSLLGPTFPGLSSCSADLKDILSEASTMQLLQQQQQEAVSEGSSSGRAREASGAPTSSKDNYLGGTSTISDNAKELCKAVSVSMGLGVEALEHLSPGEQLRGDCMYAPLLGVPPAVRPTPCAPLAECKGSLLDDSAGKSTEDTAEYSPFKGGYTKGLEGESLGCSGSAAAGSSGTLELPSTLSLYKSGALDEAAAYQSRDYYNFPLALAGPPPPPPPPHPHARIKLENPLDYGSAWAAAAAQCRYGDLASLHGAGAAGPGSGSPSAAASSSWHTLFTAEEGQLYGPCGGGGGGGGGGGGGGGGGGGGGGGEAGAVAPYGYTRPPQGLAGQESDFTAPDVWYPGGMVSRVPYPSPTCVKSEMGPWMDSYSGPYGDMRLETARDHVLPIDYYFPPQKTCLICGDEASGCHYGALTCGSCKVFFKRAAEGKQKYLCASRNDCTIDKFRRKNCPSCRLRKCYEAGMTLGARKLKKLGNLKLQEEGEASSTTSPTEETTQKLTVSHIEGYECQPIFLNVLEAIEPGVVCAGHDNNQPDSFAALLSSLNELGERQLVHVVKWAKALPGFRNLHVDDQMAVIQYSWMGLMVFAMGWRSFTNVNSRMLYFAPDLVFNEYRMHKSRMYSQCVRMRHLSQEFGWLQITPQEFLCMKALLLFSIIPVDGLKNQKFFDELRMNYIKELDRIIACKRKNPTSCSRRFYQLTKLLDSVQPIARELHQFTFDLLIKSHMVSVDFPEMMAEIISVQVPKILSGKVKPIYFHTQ
In words: Androgen Receptor ELISA assay (PathScan AR ELISA) in VCaP cells: AR degradation, Dmax and DC50. In kind it is cell-based. As to conditions: for Dmax: VCaP, read-out: VCaP Dmax (%); for DC50: read-out: VCaP DC50, concentration that caused 50% Androgen Receptor degradation, VCaP cells. A digest of the protocol: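 VCaP cells in phenol red-free RPMI with 5% charcoal-stripped FBS were grown at least 3 days, then given compound as 7 half-log doses in 0.1% DMSO with 0.1 nM R1881 for 24 h. Lysates went into a sandwich AR ELISA with TMB read at 450 nm.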
(In general: ELISA stands for enzyme-linked immunosorbent assay.)

Test [2] concerns the target T2, Androgen Receptor (Homo sapiens, UniProt P10275+P40337, T878A).
T2 construct: Compounds have been evaluated in this assay in LNCaP and/or VCaP cells utilizing similar protocols; endogenous in cells; host or cells: LNCaP cells
In words: Androgen Receptor ELISA assay (PathScan AR ELISA) in LNCaP cells: AR degradation, Dmax and DC50. It is filed as cell-based. The settings on record: for DC50: concentration that caused 50% Androgen Receptor degradation; for Dmax: highest percentage of Androgen Receptor degradation observed.

T2 sequence (P10275 whole entry T878A): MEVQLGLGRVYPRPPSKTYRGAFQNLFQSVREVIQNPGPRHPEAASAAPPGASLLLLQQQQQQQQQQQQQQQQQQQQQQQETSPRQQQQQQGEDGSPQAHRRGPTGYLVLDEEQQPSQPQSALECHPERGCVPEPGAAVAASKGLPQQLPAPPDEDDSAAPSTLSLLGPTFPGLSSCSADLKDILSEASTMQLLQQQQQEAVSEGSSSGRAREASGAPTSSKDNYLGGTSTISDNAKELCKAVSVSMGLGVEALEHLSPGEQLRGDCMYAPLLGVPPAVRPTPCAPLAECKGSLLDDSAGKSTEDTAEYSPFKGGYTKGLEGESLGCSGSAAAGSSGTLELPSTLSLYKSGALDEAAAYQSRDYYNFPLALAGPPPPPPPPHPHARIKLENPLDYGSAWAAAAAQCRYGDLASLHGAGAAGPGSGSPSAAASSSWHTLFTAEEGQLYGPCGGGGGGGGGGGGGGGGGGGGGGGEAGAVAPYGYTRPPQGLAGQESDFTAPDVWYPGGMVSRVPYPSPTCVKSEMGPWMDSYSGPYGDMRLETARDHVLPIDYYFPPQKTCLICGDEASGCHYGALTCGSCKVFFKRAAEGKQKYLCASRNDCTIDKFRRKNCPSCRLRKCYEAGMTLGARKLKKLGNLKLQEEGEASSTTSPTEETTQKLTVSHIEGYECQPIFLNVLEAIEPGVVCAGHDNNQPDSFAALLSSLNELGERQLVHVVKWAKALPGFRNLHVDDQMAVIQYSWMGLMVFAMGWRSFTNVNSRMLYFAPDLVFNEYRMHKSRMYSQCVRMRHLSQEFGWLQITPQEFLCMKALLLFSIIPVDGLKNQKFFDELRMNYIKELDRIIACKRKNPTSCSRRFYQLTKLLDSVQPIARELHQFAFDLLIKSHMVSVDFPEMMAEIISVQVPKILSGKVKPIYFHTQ
T2 sequence (P40337 whole entry): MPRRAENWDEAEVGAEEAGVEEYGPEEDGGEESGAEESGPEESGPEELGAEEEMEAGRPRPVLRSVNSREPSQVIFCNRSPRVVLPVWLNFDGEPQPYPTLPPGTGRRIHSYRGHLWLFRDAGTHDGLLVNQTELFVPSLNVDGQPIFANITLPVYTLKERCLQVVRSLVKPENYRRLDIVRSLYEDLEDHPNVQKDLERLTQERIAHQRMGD
T2 sequence (Q15369 whole entry partner): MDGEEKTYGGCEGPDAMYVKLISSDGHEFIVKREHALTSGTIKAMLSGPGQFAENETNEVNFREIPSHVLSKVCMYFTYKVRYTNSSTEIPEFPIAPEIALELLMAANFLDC
T2 sequence (Q15370 whole entry partner): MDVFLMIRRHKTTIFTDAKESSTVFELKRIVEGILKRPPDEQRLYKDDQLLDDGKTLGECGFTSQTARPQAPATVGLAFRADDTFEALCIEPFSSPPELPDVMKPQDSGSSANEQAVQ

A word on the Dmax: it is the largest share of the target that was removed. For orientation: DC50 means the concentration giving 50% degradation. On to `Cc1ncsc1-c1ccc(CNC(=O)[C@@H]2C[C@@H](O)CN2C(=O)[C@@H](NC(=O)COCCCCCNC(=O)CCCc2ccc(N3C(=S)N(c4ccc(C#N)c(C(F)(F)F)c4)C(=O)C3(C)C)cc2)C(C)(C)C)cc1` [Example 63, (2S,4R)-1-[(2S)-2-[2-({5-[4-(4-{3-[4-cyano-3-(trifluoromethyl)phenyl]-5,5-dimethyl-4-oxo-2-sulfanylideneimidazolidin-1-yl}phenyl)butanamido]pentyl}oxy)acetamido]-3,3-dimethylbutanoyl]-4-hydroxy-N-{[4-(4-methyl-1,3-thiazol-5-yl)phenyl]methyl}pyrrolidine-2-carboxamide], for which, on Androgen Receptor [1], the Dmax lay in the range of 26 to 50% and the DC50 was less than 50 nM. On Androgen Receptor [2], the 50% degradation concentration (DC50) was 51 to 500 nM and the greatest degradation seen (Dmax) is more than 71%.

With `Cc1ncsc1-c1ccc(CNC(=O)[C@@H]2C[C@@H](O)CN2C(=O)[C@@H](NC(=O)COCCCCCN(C)C(=O)CCCc2ccc(N3C(=S)N(c4ccc(C#N)c(C(F)(F)F)c4)C(=O)C3(C)C)cc2)C(C)(C)C)cc1` [Example 65, (2S,4R)-1-[(2S)-2-[2-({5-[4-(4-{3-[4-cyano-3-(trifluoromethyl)phenyl]-5,5-dimethyl-4-oxo-2-sulfanylideneimidazolidin-1-yl}phenyl)-N-methylbutanamido]pentyl}oxy)acetamido]-3,3-dimethylbutanoyl]-4-hydroxy-N-{[4-(4-methyl-1,3-thiazol-5-yl)phenyl]methyl}pyrrolidine-2-carboxamide], the Dmax on Androgen Receptor [1] and on Androgen Receptor [2] was 51 to 70% throughout. The half-maximal degradation concentration (DC50) at Androgen Receptor [1] is less than 50 nM; at Androgen Receptor [2], 51 to 500 nM.

Take `Cc1ncsc1-c1ccc(CNC(=O)[C@@H]2C[C@@H](O)CN2C(=O)[C@@H](NC(=O)OCCOCCOc2ccc(-c3ccc(N4C(=S)N(c5ccc(C#N)c(C(F)(F)F)c5)C(=O)C4(C)C)cc3)cc2)C(C)(C)C)cc1` [Example 66, 2-(2-(4′-(3-(4-cyano-3-(trifluoromethyl)phenyl)-5,5-dimethyl-4-oxo-2-thioxoimidazolidin-1-yl)biphenyl-4-yloxy)ethoxy)ethyl (S)-1-((2S,4R)-4-hydroxy-2-(4-(4-methylthiazol-5-yl)benzylcarbamoyl)pyrrolidin-1-yl)-3,3-dimethyl-1-oxobutan-2-ylcarbamate]: on Androgen Receptor [1], the Dmax was in the range of 26 to 50% and the 50% degradation concentration (DC50) lay within 51 to 500 nM. At Androgen Receptor [2], this compound came in with a DC50 of 51 to 500 nM and a Dmax of 51 to 70%.

Regarding `Cc1ncsc1-c1ccc(CNC(=O)[C@@H]2C[C@@H](O)CN2C(=O)[C@@H](NC(=O)COCCOCCOc2ccc(-c3ccc(N4C(=S)N(c5ccc(C#N)c(C(F)(F)F)c5)C(=O)C4(C)C)cc3)cc2)C(C)(C)C)cc1` [Example 67, (2S,4R)-1-((S)-2-(2-(2-(2-(4′-(3-(4-cyano-3-(trifluoromethyl)phenyl)-5,5-dimethyl-4-oxo-2-thioxoimidazolidin-1-yl)biphenyl-4-yloxy)ethoxy)ethoxy)acetamido)-3,3-dimethylbutanoyl)-4-hydroxy-N-(4-(4-methylthiazol-5-yl)benzyl)pyrrolidine-2-carboxamide], on Androgen Receptor [1], the Dmax is 26 to 50% and the DC50 was less than 50 nM. In addition, at Androgen Receptor [2], the DC50 was less than 50 nM and the Dmax is more than 71%.

Consider `Cc1ncsc1-c1ccc(CNC(=O)[C@@H]2C[C@@H](O)CN2C(=O)[C@@H](NC(=O)CCCCOc2ccc(-c3ccc(N4C(=S)N(c5ccc(C#N)c(C(F)(F)F)c5)C(=O)C4(C)C)cc3)cc2)C(C)(C)C)cc1` [Example 69, (2S,4R)-1-[(2S)-2-{5-[4-(4-{3-[4-cyano-3-(trifluoromethyl)phenyl]-5,5-dimethyl-4-oxo-2-sulfanylideneimidazolidin-1-yl}phenyl)phenoxy]pentanamido}-3,3-dimethylbutanoyl]-4-hydroxy-N-{[4-(4-methyl-1,3-thiazol-5-yl)phenyl]methyl}pyrrolidine-2-carboxamide], for which, on Androgen Receptor [1], the Dmax lay within 26 to 50% and the DC50 was in the range of 51 to 500 nM. At Androgen Receptor [2], this compound gave a DC50 of 51 to 500 nM and a maximal degradation (Dmax) of more than 71%.

For the compound `Cc1ncsc1-c1ccc(CNC(=O)[C@@H]2C[C@@H](O)CN2C(=O)[C@@H](NC(=O)CCOCCOc2ccc(-c3ccc(N4C(=S)N(c5ccc(C#N)c(C(F)(F)F)c5)C(=O)C4(C)C)cc3)cc2)C(C)(C)C)cc1` [Example 70, (2S,4R)-1-[(2S)-2-(3-{2-[4-(4-{3-[4-cyano-3-(trifluoromethyl)phenyl]-5,5-dimethyl-4-oxo-2-sulfanylideneimidazolidin-1-yl}phenyl)phenoxy]ethoxy}propanamido)-3,3-dimethylbutanoyl]-4-hydroxy-N-{[4-(4-methyl-1,3-thiazol-5-yl)phenyl]methyl}pyrrolidine-2-carboxamide], the Dmax on Androgen Receptor [1] is 26 to 50%; on Androgen Receptor [2], more than 71%. The DC50 on Androgen Receptor [1] and at Androgen Receptor [2] was less than 50 nM in each case.

For `Cc1ncsc1-c1ccc(CNC(=O)[C@@H]2C[C@@H](O)CN2C(=O)[C@@H](NC(=O)COCCCCCOc2ccc(-c3ccc(N4C(=S)N(c5ccc(C#N)c(C(F)(F)F)c5)C(=O)C4(C)C)cc3)cc2)C(C)(C)C)cc1` [Example 71, (2S,4R)-1-[(2S)-2-[2-({5-[4-(4-{3-[4-cyano-3-(trifluoromethyl)phenyl]-5,5-dimethyl-4-oxo-2-sulfanylideneimidazolidin-1-yl}phenyl)phenoxy]pentyl}oxy)acetamido]-3,3-dimethylbutanoyl]-4-hydroxy-N-{[4-(4-methyl-1,3-thiazol-5-yl)phenyl]methyl}pyrrolidine-2-carboxamide], at Androgen Receptor [1], the Dmax was 51 to 70% and the DC50 was less than 50 nM. At Androgen Receptor [2], this compound displayed a DC50 of less than 50 nM and a maximal degradation (Dmax) of more than 71%.

As for `Cc1ncsc1-c1ccc(CNC(=O)[C@@H]2C[C@@H](O)CN2C(=O)[C@@H](NC(=O)COCCOCCOc2ccc(-c3ccc(N4C(=S)N(c5ccc(C#N)c(C(F)(F)F)c5)C(=O)C4(C)C)cc3F)cc2)C(C)(C)C)cc1` [Example 73, (2S,4R)-1-[(2S)-2-[2-(2-{2-[4-(4-{3-[4-cyano-3-(trifluoromethyl)phenyl]-5,5-dimethyl-4-oxo-2-sulfanylideneimidazolidin-1-yl}-2-fluorophenyl)phenoxy]ethoxy}ethoxy)acetamido]-3,3-dimethylbutanoyl]-4-hydroxy-N-{[4-(4-methyl-1,3-thiazol-5-yl)phenyl]methyl}pyrrolidine-2-carboxamide], the results for the Dmax at Androgen Receptor [1] and at Androgen Receptor [2] were 51 to 70% and more than 71%, respectively. Also, the DC50 at Androgen Receptor [1] and on Androgen Receptor [2] was less than 50 nM in each case.

Regarding `Cc1ncsc1-c1ccc(CNC(=O)[C@@H]2C[C@@H](O)CN2C(=O)[C@@H](NC(=O)OCCCCCOc2ccc(-c3ccc(N4C(=S)N(c5ccc(C#N)c(C(F)(F)F)c5)C(=O)C4(C)C)cc3)cc2)C(C)(C)C)cc1` [Example 74, 5-[4-(4-{3-[4-cyano-3-(trifluoromethyl)phenyl]-5,5-dimethyl-4-oxo-2-sulfanylideneimidazolidin-1-yl}phenyl)phenoxy]pentyl N-[(2S)-1-[(2S,4R)-4-hydroxy-2-({[4-(4-methyl-1,3-thiazol-5-yl)phenyl]methyl}carbamoyl)pyrrolidin-1-yl]-3,3-dimethyl-1-oxobutan-2-yl]carbamate], at Androgen Receptor [1], the maximal degradation (Dmax) is 26 to 50% and the DC50 is less than 50 nM. At Androgen Receptor [2], the DC50 is less than 50 nM and the maximal degradation (Dmax) is more than 71%.

In the case of `Cc1ncsc1-c1ccc(CNC(=O)[C@@H]2C[C@@H](O)CN2C(=O)[C@@H](NC(=O)COCCCOc2ccc(-c3ccc(N4C(=S)N(c5ccc(C#N)c(C(F)(F)F)c5)C(=O)C4(C)C)cc3)cc2)C(C)(C)C)cc1` [Example 77], on Androgen Receptor [1], the greatest degradation seen (Dmax) was 51 to 70% and the DC50 is less than 50 nM. In addition, at Androgen Receptor [2], the DC50 is less than 50 nM and the Dmax is more than 71%.

In the case of `Cc1ncsc1-c1ccc(CNC(=O)[C@@H]2C[C@@H](O)CN2C(=O)[C@@H](NC(=O)COCCOc2ccc(-c3ccc(N4C(=S)N(c5ccc(C#N)c(C(F)(F)F)c5)C(=O)C4(C)C)cc3)cc2)C(C)(C)C)cc1` [Example 78], the Dmax is 51 to 70% at Androgen Receptor [1] and more than 71% on Androgen Receptor [2]. The DC50 on Androgen Receptor [1] and on Androgen Receptor [2] was less than 50 nM throughout.
